Data as given in patent US9173882B2, “Polycyclic heteroaryl substituted triazoles useful as Axl inhibitors” (Rigel Pharmaceuticals, Inc., priority 2008, dated 2015).

Target: T1, Axl (Homo sapiens, UniProt P30530)
T1 construct: endogenous in cells; host or cells: HeLa cells
T1 sequence (P30530 26-894): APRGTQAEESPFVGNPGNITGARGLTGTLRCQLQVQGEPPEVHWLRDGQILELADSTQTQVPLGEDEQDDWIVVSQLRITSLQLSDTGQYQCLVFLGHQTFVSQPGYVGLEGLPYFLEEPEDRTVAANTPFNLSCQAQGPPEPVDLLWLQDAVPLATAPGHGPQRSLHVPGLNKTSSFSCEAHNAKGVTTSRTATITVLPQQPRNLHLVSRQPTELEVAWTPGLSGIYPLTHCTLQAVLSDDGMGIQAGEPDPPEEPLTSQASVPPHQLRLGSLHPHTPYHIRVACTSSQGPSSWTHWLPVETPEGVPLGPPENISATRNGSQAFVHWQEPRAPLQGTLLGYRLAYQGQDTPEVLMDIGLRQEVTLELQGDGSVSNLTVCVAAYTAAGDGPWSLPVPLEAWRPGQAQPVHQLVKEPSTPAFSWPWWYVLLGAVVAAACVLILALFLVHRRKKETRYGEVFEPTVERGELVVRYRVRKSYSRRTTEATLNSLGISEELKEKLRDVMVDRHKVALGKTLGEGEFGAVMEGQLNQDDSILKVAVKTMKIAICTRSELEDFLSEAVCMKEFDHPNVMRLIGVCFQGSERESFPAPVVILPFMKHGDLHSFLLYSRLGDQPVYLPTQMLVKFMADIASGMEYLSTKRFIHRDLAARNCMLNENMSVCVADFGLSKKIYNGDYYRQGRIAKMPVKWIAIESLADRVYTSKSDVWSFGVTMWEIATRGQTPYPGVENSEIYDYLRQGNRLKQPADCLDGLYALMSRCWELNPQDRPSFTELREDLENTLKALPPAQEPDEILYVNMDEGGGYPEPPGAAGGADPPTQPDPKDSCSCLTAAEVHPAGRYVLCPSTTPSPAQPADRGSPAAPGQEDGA
Experiment: Phospho-Akt in-cell Western assay
Format: cell-based
Details: Hela cells, stimulated by Axl-antibody cross-linking, phospho-Akt chemiluminescence
Experimental: Phospho-Akt in-Cell Western Assay
The compounds of the invention were tested in the following assay for their ability to inhibit Axl activity.
• Cell culture plate: 96 well assay plate (Corning 3610), white, clear bottom, tissue-culture treated. • Cells: Hela cells. • Starvation medium: For Axl stimulation: 0.5% FCS (fetal calf serum) in DMEM, plus Axl/Fc (extracellular domain of AXL fused to imunoglobulin Fc region) (R&D, 154-AL) 500 ng/mL. • For EGF (epidermal growth factor) stimulation: 0.5% FCS in DMEM (Dulbecco's modified Eagles medium). • Poly-L-Lysine 0.01% solution (the working solution): 10 μg/ml, dilute In PBS (phosphate buffered saline). • Axl antibody cross-linking: • 1st: Mouse anti-Axl (R&D, MAB154). • 2nd: Biotin-SP-conjugated AffiniPure goat anti-mouse IgG (H+L) (Jackson ImmunoResearch #115-065-003). • Fixing buffer: 4% formaldehyde in PBS. • Wash buffer: 0.1% TritonX-100 in PBS. • Quenching buffer: 3% H2O2, 0.1% Azide in wash buffer, Azide and hydrogen peroxide (H2O2) are added fresh. • Blocking buffer: 5% BSA in TBST (tris buffered saline plus 0.1% Tween 20). • Primary antibody: Rabbit anti-human Phospho-Akt antibody (Cell Signaling 9271): 1×250 diluted in blocking buffer. • Secondary antibody: HRP (horse radish peroxidase)-conjugated Goat anti-Rabbit secondary, stock solution: Jackson ImmunoResearch (Goat anti-Rabbit HRP, #111-035-144) 1:1 diluted in glycerol, store at −20° C. The working solution: 1×2000 dilution of stock in blocking buffer. • Chemiluminescent working solution (Pierce, 37030): SuperSignal ELISA (enzyme linked immunosorbant assay) Pico Chemiluminescent substrate. • Crystal Violet solution: Stock: 2.5% Crystal violet in methanol, filtered and kept at ambient temperature. The working solution: dilute the stock 1:20 with PBS immediately before use. • 10% SDS: working solution: 5% SDS (sodium dodecylsulfate), diluted in PBS Methods: Day 1:
A 96 well TC (tissue culture treated) plate was coated with 10 μg/mL poly-L-Lysine at 37° C. for 30 min, washed twice with PBS, and air-dried for 5 minutes before cells were added. Hela cells were seeded at 10,000 cells/well and the cells were starved in 100 μL starvation medium containing Axl/Fc for 24 hrs.
The cells were pre-treated with test compounds by adding 100 μL of 2× test compound to the starvation medium on the cells. The cells were incubated at 37° C. for 1 hr before stimulation.
The cells were stimulated by Axl-antibody cross-linking as follows: A 5× 1st/2nd Axl antibody mixture was made (37.5 μg/mL 1st/100 μg/mL 2nd) in starvation medium and nutated at 4° C. with thorough mixing for 1-2 hours for clustering. The resulting mix was warmed to 37° C. 50 μL of 5× Axl 1st/2nd of antibody cluster was added to the cells and the cells were incubated at 37° C. for 5 min.
After 5 minutes stimulation, the plate was flicked to remove medium and the plate was tapped onto paper towels. Formaldehyde (4.0% in PBS, 100 μL) was added to fix the cells and the cells were incubated at ambient temperature for 20 min without shaking.
The cells were washed with a plate washer buffer to remove the formaldehyde solution. The plate was flicked to removed excess wash buffer and tapped onto paper towels. Quenching buffer (100 μL) was added to each well and the cells were incubated at ambient temperature for 20 minutes without shaking.
The cells were washed with a plate washer buffer to remove the quenching buffer. Blocking buffer (100 μL) was added and the cells were incubated at ambient temperature for at least an hour with gentle shaking.
The cells were washed with a plate washer buffer and diluted primary antibody (50 μL) was added to each well (blocking buffer was added to the negative control wells instead). The plates were incubated overnight at 4° C. with gentle shaking.
The wash buffer was removed, diluted secondary antibody (100 μL) was added, and the cells were incubated at ambient temperature for 1 hour with gentle shaking. […]

Row | Structure (SMILES) | IC50 (Table 1, formula (Ia)) [nM] | IC50 (Table 3, formula (II)) [nM]
1 | Nc1nc(Nc2ccc3c(c2)CC[C@@H](N(CC2CCCC2)CC2CCCC2)CC3)nn1-c1cc2c(nn1)-c1ccccc1CCC2 [Compound 35, 1-(6,7-dihydro-5H-benzo[6,7]cyclohepta[1,2-c]pyridazin-3-yl)-N^3-((7S)-7-(di(cyclopentylmethyl)amino)-6,7,8,9-tetrahydro-5H-benzo[7]annulene-2-yl)-1H-1,2,4-triazole-3,5-diamine] | 1000 to 10000 | –
2 | Nc1nc(Nc2ccc3c(c2)CC[C@@H](N(CC2CC4C=CC2C4)CC2CC4C=CC2C4)CC3)nn1-c1cc2c(nn1)-c1ccccc1CCC2 (stereo partly drawn) [Compound 37, 1-(6,7-dihydro-5H-benzo[6,7]cyclohepta[1,2-c]pyridazin-3-yl)-N^3-((7S)-7-(di(bicyclo[2.2.1]hept-2-en-5-ylmethyl)amino)-6,7,8,9-tetrahydro-5H-benzo[7]annulene-2-yl)-1H-1,2,4-triazole-3,5-diamine] | 1000 to 10000 | –
3 | CC(C)CCN(CCC(C)C)[C@H]1CCc2ccc(Nc3nc(N)n(-c4cc5c(nn4)-c4ccccc4CCC5)n3)cc2CC1 [Compound 40, 1-(6,7-dihydro-5H-benzo[6,7]cyclohepta[1,2-c]pyridazin-3-yl)-N^3-((7S)-7-(di(3-methylbutyl)amino)-6,7,8,9-tetrahydro-5H-benzo[7]annulene-2-yl)-1H-1,2,4-triazole-3,5-diamine] | 1000 to 10000 | –
4 | CC(C)(C)OC(=O)N[C@H]1CCc2ccc(Nc3nc(N)n(-c4cc5c(nn4)-c4cccnc4CCC5)n3)cc2CC1 [Compound 44] | > 20000 | –
5 | Nc1nc(Nc2ccc(N3CCC(N4CCCC4)CC3)c(F)c2)nn1-c1cc2c(nn1)-c1cccnc1CCC2 [Compound 45, 1-(6,7-dihydro-5H-pyrido[2′,3′:6,7]cyclohepta[1,2-c]pyridazin-3-yl)-N^3-(3-fluoro-4-(4-(pyrrolidin-1-yl)piperidin-1-yl)phenyl)-1H-1,2,4-triazole-3,5-diamine] | – | > 20000
6 | CN(C)[C@H]1CCc2ccc(Nc3nc(N)n(-c4cc5c(nn4)-c4cccnc4CCC5)n3)cc2CC1 [Compound 47, 1-(6,7-dihydro-5H-pyrido[2′,3′:6,7]cyclohepta[1,2-c]pyridazin-3-yl)-N^3-((7S)-7-(dimethylamino)-6,7,8,9-tetrahydro-5H-benzo[7]annulene-2-yl)-1H-1,2,4-triazole-3,5-diamine] | 1000 to 10000 | –

More lines, now with the values ahead:

Row | IC50 (Table 1, formula (Ia)) [nM] | IC50 (Table 3, formula (II)) [nM] | Structure (SMILES)
7 | < 1000 | – | CCC(CC)N[C@H]1CCc2ccc(Nc3nc(N)n(-c4cc5c(nn4)-c4ccccc4CCC5)n3)cc2CC1 [Compound 33, 1-(6,7-dihydro-5H-benzo[6,7]cyclohepta[1,2-c]pyridazin-3-yl)-N^3-((7S)-7-(3-pentylamino)-6,7,8,9-tetrahydro-5H-benzo[7]annulene-2-yl)-1H-1,2,4-triazole-3,5-diamine]
8 | < 1000 | – | CC(C)(C)CN[C@H]1CCc2ccc(Nc3nc(N)n(-c4cc5c(nn4)-c4ccccc4CCC5)n3)cc2CC1 [Compound 34, 1-(6,7-dihydro-5H-benzo[6,7]cyclohepta[1,2-c]pyridazin-3-yl)-N^3-((7S)-7-((2,2-dimethylpropyl)amino)-6,7,8,9-tetrahydro-5H-benzo[7]annulene-2-yl)-1H-1,2,4-triazole-3,5-diamine]
9 | < 1000 | – | Nc1nc(Nc2ccc3c(c2)CC[C@@H](NCC2CCCC2)CC3)nn1-c1cc2c(nn1)-c1ccccc1CCC2 [Compound 36, 1-(6,7-dihydro-5H-benzo[6,7]cyclohepta[1,2-c]pyridazin-3-yl)-N^3-((7S)-7-((cyclopentylmethyl)amino)-6,7,8,9-tetrahydro-5H-benzo[7]annulene-2-yl)-1H-1,2,4-triazole-3,5-diamine]
10 | < 1000 | – | Nc1nc(Nc2ccc3c(c2)CC[C@@H](NCC2CC4C=CC2C4)CC3)nn1-c1cc2c(nn1)-c1ccccc1CCC2 (stereo partly drawn) [Compound 38, 1-(6,7-dihydro-5H-benzo[6,7]cyclohepta[1,2-c]pyridazin-3-yl)-N^3-((7S)-7-((bicyclo[2.2.1]hept-2-en-5-ylmethyl)amino)-6,7,8,9-tetrahydro-5H-benzo[7]annulene-2-yl)-1H-1,2,4-triazole-3,5-diamine]
11 | < 1000 | – | CC(C)CCN[C@H]1CCc2ccc(Nc3nc(N)n(-c4cc5c(nn4)-c4ccccc4CCC5)n3)cc2CC1 [Compound 39, 1-(6,7-dihydro-5H-benzo[6,7]cyclohepta[1,2-c]pyridazin-3-yl)-N^3-((7S)-7-(3-methylbutylamino)-6,7,8,9-tetrahydro-5H-benzo[7]annulene-2-yl)-1H-1,2,4-triazole-3,5-diamine]
12 | < 1000 | – | CCC(CC)CN[C@H]1CCc2ccc(Nc3nc(N)n(-c4cc5c(nn4)-c4ccccc4CCC5)n3)cc2CC1 [Compound 41, 1-(6,7-dihydro-5H-benzo[6,7]cyclohepta[1,2-c]pyridazin-3-yl)-N^3-((7S)-7-(2-ethylbutylamino)-6,7,8,9-tetrahydro-5H-benzo[7]annulene-2-yl)-1H-1,2,4-triazole-3,5-diamine]
13 | < 1000 | – | CC=CCN[C@H]1CCc2ccc(Nc3nc(N)n(-c4cc5c(nn4)-c4ccccc4CCC5)n3)cc2CC1 [Compound 42, 1-(6,7-dihydro-5H-benzo[6,7]cyclohepta[1,2-c]pyridazin-3-yl)-N^3-((7S)-7-(but-2-enylamino)-6,7,8,9-tetrahydro-5H-benzo[7]annulene-2-yl)-1H-1,2,4-triazole-3,5-diamine]
14 | < 1000 | – | CC=CCN(CCCC)[C@H]1CCc2ccc(Nc3nc(N)n(-c4cc5c(nn4)-c4ccccc4CCC5)n3)cc2CC1 [Compound 43, 1-(6,7-dihydro-5H-benzo[6,7]cyclohepta[1,2-c]pyridazin-3-yl)-N^3-((7S)-7-(butyl(but-2-enyl)amino)-6,7,8,9-tetrahydro-5H-benzo[7]annulene-2-yl)-1H-1,2,4-triazole-3,5-diamine]
15 | < 1000 | – | Nc1nc(Nc2ccc3c(c2)CC[C@@H](N)CC3)nn1-c1cc2c(nn1)-c1cccnc1CCC2 [Compound 46, 1-(6,7-dihydro-5H-pyrido[2′,3′:6,7]cyclohepta[1,2-c]pyridazin-3-yl)-N^3-((7S)-7-amino-6,7,8,9-tetrahydro-5H-benzo[7]annulene-2-yl)-1H-1,2,4-triazole-3,5-diamine]
